Reference: US9169254B2, “Spiroimidazolone derivative” (Chugai Seiyaku Kabushiki Kaisha, priority 2009, dated 2015)

molecular target: T1, human PTH1 receptor (Homo sapiens, UniProt Q03431); experiment: In vitro cAMP signal activity in HKRK-B7 cells (LLC-PK1 cells overexpressing the human PTH1 receptor); assay type: cell-based; conditions: HKRK-B7 cells; compound at 1×10^−3 M; cAMP produced as percentage of that produced by hPTH(1-34) at 100 nM
T1 sequence (Q03431 27-593): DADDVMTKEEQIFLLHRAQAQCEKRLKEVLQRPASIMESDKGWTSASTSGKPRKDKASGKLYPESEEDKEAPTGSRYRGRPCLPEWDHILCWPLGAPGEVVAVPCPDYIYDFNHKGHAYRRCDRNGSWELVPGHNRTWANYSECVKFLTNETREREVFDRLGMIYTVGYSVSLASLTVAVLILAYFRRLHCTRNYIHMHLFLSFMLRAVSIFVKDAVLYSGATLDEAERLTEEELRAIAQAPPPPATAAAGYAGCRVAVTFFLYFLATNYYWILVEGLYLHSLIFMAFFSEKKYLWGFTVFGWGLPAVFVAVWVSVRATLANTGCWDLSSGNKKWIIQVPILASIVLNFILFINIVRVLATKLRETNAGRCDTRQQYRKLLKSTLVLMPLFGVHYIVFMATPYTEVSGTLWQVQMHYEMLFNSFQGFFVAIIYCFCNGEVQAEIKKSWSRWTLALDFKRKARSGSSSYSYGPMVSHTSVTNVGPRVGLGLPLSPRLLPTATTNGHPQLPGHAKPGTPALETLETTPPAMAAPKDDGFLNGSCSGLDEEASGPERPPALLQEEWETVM

| cAMP production activity (%) | Structure (SMILES) |
| --- | --- |
| 68 | Cc1cc(C(=O)N2CCC(C)(O)CC2)cc(C)c1/C=C/S(=O)(=O)N1CCC2(CC1)N=C(c1ccc(C(F)(F)F)c(OCC(F)(F)C(F)(F)F)c1)NC2=O [Compound 1228, 8-{(E)-2-[4-(4-hydroxy-4-methyl-piperidine-1-carbonyl)-2,6-dimethyl-phenyl]-ethenesulfonyl}-2-[3-(2,2,3,3,3-pentafluoro-propoxy)-4-trifluoromethyl-phenyl]-1,3,8-triaza-spiro[4.5]dec-1-en-4-one] |
| 56 | Cc1cc(C(=O)N2CCC(C)(O)CC2)cc(C)c1/C=C/S(=O)(=O)N1CCC2(CC1)N=C(c1ccc(Cl)c(OCC(F)(F)C(F)F)c1)NC2=O [Compound 1229, 2-[4-chloro-3-(2,2,3,3-tetrafluoro-propoxy)-phenyl]-8-{(E)-2-[4-(4-hydroxy-4-methyl-piperidine-1-carbonyl)-2,6-dimethyl-phenyl]-ethenesulfonyl}-1,3,8-triaza-spiro[4.5]dec-1-en-4-one] |
| 114 | Cc1cc(C(=O)N2CCC(C)(O)CC2)cc(C)c1CCS(=O)(=O)N1CCC2(CC1)N=C(c1ccc(OC(F)(F)F)cc1)NC2=O [Compound 1234, 8-{2-[4-(4-hydroxy-4-methyl-piperidine-1-carbonyl)-2,6-dimethyl-phenyl]-ethanesulfonyl}-2-(4-trifluoromethoxy-phenyl)-1,3,8-triaza-spiro[4.5]dec-1-en-4-one] |
| 98 | Cc1cc(C2=NC3(CCN(S(=O)(=O)CCc4c(C)cc(C(=O)N5CCC(C)(O)CC5)cc4C)CC3)C(=O)N2)ccc1C(F)(F)F [Compound 1235, 8-{2-[4-(4-hydroxy-4-methyl-piperidine-1-carbonyl)-2,6-dimethyl-phenyl]-ethanesulfonyl}-2-(3-methyl-4-trifluoromethyl-phenyl)-1,3,8-triaza-spiro[4.5]dec-1-en-4-one] |
| 101 | Cc1cc(C(=O)N2CCC(O)(CF)CC2)cc(C)c1/C=C/S(=O)(=O)N1CCC2(CC1)N=C(c1ccc(C(F)(F)F)c(Cl)c1)NC2=O [Compound 1241, 2-(3-chloro-4-trifluoromethyl-phenyl)-8-{(E)-2-[4-(4-fluoromethyl-4-hydroxy-piperidine-1-carbonyl)-2,6-dimethyl-phenyl]-ethenesulfonyl}-1,3,8-triaza-spiro[4.5]dec-1-en-4-one] |
| 106 | Cc1cc(C(=O)N2CCC(O)(CF)CC2)cc(C)c1/C=C/S(=O)(=O)N1CCC2(CC1)N=C(c1ccc(F)c(Cl)c1)NC2=O [Compound 1242, 2-(3-chloro-4-fluoro-phenyl)-8-{(E)-2-[4-(4-fluoromethyl-4-hydroxy-piperidine-1-carbonyl)-2,6-dimethyl-phenyl]-ethenesulfonyl}-1,3,8-triaza-spiro[4.5]dec-1-en-4-one] |
| 77 | Cc1cc(C(=O)N2CCC(O)(CF)CC2)cc(C)c1/C=C/S(=O)(=O)N1CCC2(CC1)N=C(c1cccc(C(F)(F)C(F)(F)F)c1)NC2=O [Compound 1243, 8-{(E)-2-[4-(4-fluoromethyl-4-hydroxy-piperidine-1-carbonyl)-2,6-dimethyl-phenyl]-ethenesulfonyl}-2-(3-pentafluoroethyl-phenyl)-1,3,8-triaza-spiro[4.5]dec-1-en-4-one] |
| 115 | Cc1cc(C(=O)N2CCC(O)(CF)CC2)cc(C)c1/C=C/S(=O)(=O)N1CCC2(CC1)N=C(c1ccc(S(F)(F)(F)(F)F)cc1)NC2=O [Compound 1245, 8-{(E)-2-[4-(4-fluoromethyl-4-hydroxy-piperidine-1-carbonyl)-2,6-dimethyl-phenyl]-ethenesulfonyl}-2-(4-pentafluorosulfanyl-phenyl)-1,3,8-triaza-spiro[4.5]dec-1-en-4-one] |
| 85 | Cc1cc(C(=O)N2CCC(O)(CF)CC2)cc(C)c1/C=C/S(=O)(=O)N1CCC2(CC1)N=C(c1ccc(OCC(F)(F)F)c(Cl)c1)NC2=O [Compound 1246, 2-[3-chloro-4-(2,2,2-trifluoro-ethoxy)-phenyl]-8-{(E)-2-[4-(4-fluoromethyl-4-hydroxy-piperidine-1-carbonyl)-2,6-dimethyl-phenyl]-ethenesulfonyl}-1,3,8-triaza-spiro[4.5]dec-1-en-4-one] |

More lines, now with the values behind:

| Structure (SMILES) | cAMP production activity (%) |
| --- | --- |
| Cc1cc(C(=O)N2CCC(C)(O)CC2)cc(C)c1/C=C/S(=O)(=O)N1CCC2(CC1)N=C(c1ccc(Cl)c(OCC(F)(F)C(F)(F)F)c1)NC2=O [Compound 1230, 2-[4-chloro-3-(2,2,3,3,3-pentafluoro-propoxy)-phenyl]-8-{(E)-2-[4-(4-hydroxy-4-methyl-piperidine-1-carbonyl)-2,6-dimethyl-phenyl]-ethenesulfonyl}-1,3,8-triaza-spiro[4.5]dec-1-en-4-one] | 64 |
| [2H]C([2H])([2H])C([2H])([2H])C([2H])([2H])C([2H])([2H])Oc1cc(C2=NC3(CCN(S(=O)(=O)/C=C/c4c(C)cc(C(=O)N5CCC(C)(O)CC5)cc4C)CC3)C(=O)N2)ccc1Cl [Compound 1231, 2-(3-[1,1,2,2,3,3,4,4,4-^2H9]butoxy-4-chloro-phenyl)-8-{(E)-2-[4-(4-hydroxy-4-methyl-piperidine-1-carbonyl)-2,6-dimethyl-phenyl]-ethenesulfonyl}-1,3,8-triaza-spiro[4.5]dec-1-en-4-one] | 88 |
| Cc1cc(C(=O)N2CCC(C)(O)CC2)cc(C)c1/C=C/S(=O)(=O)N1CCC2(CC1)N=C(c1ccc(OC(F)(F)F)c(OCCCC(F)(F)F)c1)NC2=O [Compound 1232, 8-{(E)-2-[4-(4-hydroxy-4-methyl-piperidine-1-carbonyl)-2,6-dimethyl-phenyl]-ethenesulfonyl}-2-[3-(4,4,4-trifluoro-butoxy)-4-trifluoromethoxy-phenyl]-1,3,8-triaza-spiro[4.5]dec-1-en-4-one] | 106 |
| [2H]C([2H])([2H])C([2H])([2H])C([2H])([2H])C([2H])([2H])Oc1cc(C2=NC3(CCN(S(=O)(=O)/C=C/c4c(C)cc(C(=O)N5CCC(C)(O)CC5)cc4C)CC3)C(=O)N2)cc(C(F)(F)F)c1 [Compound 1233, 2-(3-[1,1,2,2,3,3,4,4,4-^2H9]butoxy-5-trifluoromethyl-phenyl)-8-{(E)-2-[4-(4-hydroxy-4-methyl-piperidine-1-carbonyl)-2,6-dimethyl-phenyl]-ethenesulfonyl}-1,3,8-triaza-spiro[4.5]dec-1-en-4-one] | 78 |
| Cc1cc(C(=O)N2CCC(C)(O)CC2)cc(C)c1CCS(=O)(=O)N1CCC2(CC1)N=C(c1ccc(C(F)(F)F)c(Cl)c1)NC2=O [Compound 1236, 2-(3-chloro-4-trifluoromethyl-phenyl)-8-{2-[4-(4-hydroxy-4-methyl-piperidine-1-carbonyl)-2,6-dimethyl-phenyl]-ethanesulfonyl}-1,3,8-triaza-spiro[4.5]dec-1-en-4-one] | 99 |
| Cc1ccc(C2=NC3(CCN(S(=O)(=O)/C=C/c4c(C)cc(C(=O)N5CCC(C)(O)CC5)cc4C)CC3)C(=O)N2)cc1C [Compound 1237, 2-(3,4-dimethyl-phenyl)-8-{(E)-2-[4-(4-hydroxy-4-methyl-piperidine-1-carbonyl)-2,6-dimethyl-phenyl]-ethenesulfonyl}-1,3,8-triaza-spiro[4.5]dec-1-en-4-one] | 96 |
| COc1ccc(C2=NC3(CCN(S(=O)(=O)/C=C/c4c(C)cc(C(=O)N5CCC(C)(O)CC5)cc4C)CC3)C(=O)N2)cc1C [Compound 1238, 8-{(E)-2-[4-(4-hydroxy-4-methyl-piperidine-1-carbonyl)-2,6-dimethyl-phenyl]-ethenesulfonyl}-2-(4-methoxy-3-methyl-phenyl)-1,3,8-triaza-spiro[4.5]dec-1-en-4-one] | 73 |
| Cc1cc(C2=NC3(CCN(S(=O)(=O)/C=C/c4c(C)cc(C(=O)N5CCC(O)(CF)CC5)cc4C)CC3)C(=O)N2)c(C)cc1F [Compound 1239, 2-(4-Fluoro-2,5-dimethyl-phenyl)-8-{(E)-2-[4-(4-fluoromethyl-4-hydroxy-piperidine-1-carbonyl)-2,6-dimethyl-phenyl]-ethenesulfonyl}-1,3,8-triaza-spiro[4.5]dec-1-en-4-one] | 91 |
| Cc1cc(C(=O)N2CCC(O)(CF)CC2)cc(C)c1/C=C/S(=O)(=O)N1CCC2(CC1)N=C(c1ccc(F)c(C)c1C)NC2=O [Compound 1240, 2-(4-fluoro-2,3-dimethyl-phenyl)-8-{(E)-2-[4-(4-fluoromethyl-4-hydroxy-piperidine-1-carbonyl)-2,6-dimethyl-phenyl]-ethenesulfonyl}-1,3,8-triaza-spiro[4.5]dec-1-en-4-one] | 95 |
| Cc1cc(C(=O)N2CCC(O)(CF)CC2)cc(C)c1/C=C/S(=O)(=O)N1CCC2(CC1)N=C(c1ccc(C(F)(F)C(F)(F)F)cc1)NC2=O [Compound 1244, 8-{(E)-2-[4-(4-fluoromethyl-4-hydroxy-piperidine-1-carbonyl)-2,6-dimethyl-phenyl]-ethenesulfonyl}-2-(4-pentafluoroethyl-phenyl)-1,3,8-triaza-spiro[4.5]dec-1-en-4-one] | 96 |
